Assay results taken from patent US20230313181A1, “HISTIDINE-LYSINE POLYMERS AND METHODS FOR DELIVERING MRNA USING THE SAME” (UNIVERSITY OF MARYLAND, BALTIMORE, priority 2019, published 2023).
Bridges are numbered along the chain shown (N, C = ends). Roman numbers before positions name the chains, in order. Where no end group is shown, it is not given here.

Key:
[1] = tested on: MDA-MB-231 cells; assay: In vitro mRNA transfection with HK polyplexes (luciferase mRNA, luciferase activity); format: cell-based; details: for RLU/μg-Protein (luciferase activity): mRNA 1 μg, 24 h
Description: FIG. 1. Comparison of H3K(+H)4b and H3K4b peptides as carriers of mRNA. To form the HK polyplexes, the mRNA (1 μg) was mixed with 3 different ratios of the HK ([…]) polymer for 30 minutes. The HK polyplexes were then added to the cells for 24 h before the luciferase activity was measured. ****, H3K(+H)4b vs H3K4b, P<0.0001.
In vitro mRNA Transfection. Several HK polymers were examined for their ability to carry a luciferase-expressing mRNA (CleanCap Firefly Luciferase mRNA, Trilink Biotechnologies, Inc, San Diego, CA) into MDA-MB-231 cells (America Type Tissue Culture, Manassas, VA). In brief, 3×10^4 cells were plated into a 24-well plate containing 500 μl of DMEM and 10% fetal bovine serum (ThermoFisher Scientific, Waltham, MA). After 24 h, when the cells were 60 to 80% confluent, the media in each well was changed to Opti-MEM (ThermoFisher Scientific). To prepare HK polyplexes, mRNA (1 μg) in 50 μl of Opti-MEM was briefly mixed well with one of the HK polymers (4 to 12 μg) and maintained at room temperature for 30 min. This polyplex was then added dropwise to the cells. After four h, the Opti-MEM media was removed and replaced with 0.5 ml of DMEM/10% serum (0.5 ml). Twenty-four hours later, the cells were lysed, and the luciferase activity (Promega Corporation, Madison, WI) was measured.
To obtain the data in Table 4, luciferase-expressing mRNA (1 μg) in 50 μl of Opti-MEM was briefly mixed with one of the HK polymers (4, 8, or 12 μg) and maintained at room temperature for 30 min. The resulting polyplexes were added dropwise to the MDA-NM-231 cells and after four h, the Opti-MEM media was removed and replaced with DMEM/10% serum. Twenty-four hours later, the cells were lysed, and the luciferase activity was measured

[2] = tested on: MDA-MB-231 cells; assay: mRNA transfection with HK associated lipid particles (HK polymer + DOTAP liposomes); format: cell-based; details: luciferase mRNA
Description: FIGS. 8A and 8B. Comparison of mRNA transfection with DOTAP and several HK polymers. To form HK associated lipid particles, the mRNA (1 μg) was initially mixed with the HK polymer (4 μg) for 30 min and then with the DOTAP liposomes (1 μg) for 30 min. HK polyplexes were prepared as described previously. These complexes were then added to the cells for 24 h before the luciferase activity was measured *, P<0.05; **, P<0.01; ***, P<0.001; […].
Transfection with HK associated lipid particles was done similarly as above with few exceptions. In brief, the HK polymer was mixed initially with mRNA at various ratios for 30 min in Opti-MEM. This was followed by adding the DOTAP cationic liposome (1,2-dioleoyl-3-trimethylam-monium-propane; […]; Roche, Basel, CH) for 30 additional min. The Opti-MEM mixture (50 μl) was then added dropwise to the cells.

[3] = tested on: mRNA; assay: Gel retardation assay of HK polymer/mRNA polyplexes; format: physicochemical; details: 1:2 and 1:1 ratios (wt:wt; peptide:mRNA)
Description: FIG. 3. Gel retardation assay. After H3K(+H)4b or H3K4b carriers were mixed with mRNA at the various ratios shown in the figure (wt:wt; peptide:mRNA, mRNA was 1 μg in each) for 30 min, the HK polyplexes were loaded onto the gel (1% agarose). Electrophoresis was carried out at a constant voltage of 75 V for 30 min in TAE buffer and then stained with Sybr Gold as detailed herein. In first lane, RNA standard (New England Biolabls, B0363A) was loaded whereas in the second lane, the control, luciferase mRNA without a carrier was loaded into the well. In subsequent lanes, various ratios of mRNA:HK were loaded into wells.
Gel Retardation Assay. Various amounts of HK polymers were mixed with […] of mRNA and incubated for 30 min at room temperature. Specifically, the following HK polymer/mRNA ratios (w/w) were prepared in water: 1/2; 1/1; 2/1, 4/1, 8/1. After 30 min, the HK polyplex was loaded onto the gel (1% agarose, Sigma-Aldrich; 10× BlueJuice Gel loading buffer, ThermoFisher Scientific), electrophoresis was then carried out at a constant voltage of 75 V for 30 min in TAE buffer (Quality Biologicals, Gaithersburg, MD). The mRNA was stained with Sybr Gold Nucleic Acid dye (SG, 1×) (ThermoFisher Scientific) for 30 min before exposure to the UV imager (ChemiDoc Touch, BIO-RAD, Hercules, CA).

[4] = Acid-base titration of HK polymer solutions; format: physicochemical; details: pH titration curves, 5 mg/ml
Description: FIG. 2. Titration of different HK peptide solutions. Solutions of polymers (5 mg/ml) (H2K4b, H3K4b, H3K(+H)4b, and H4K4b) were adjusted to pH 3 (initial volume—1 ml) and then […] aliquots of 0.05 N NaOH were stepwise added and the pH measured.
Acid-Base Titration. After polymer solutions (e.g. containing one or more of H2K4b, H3K4b, H3K(+H)4b, and H4K4b) were adjusted to pH 3.0 (5 mg/mil; initial volume—1 mil), aliquots (5 μl) of NaOH (0.05 N) were stepwise added with the pH measured (FiveEasy™ meter; InLab Solids Pro-ISM pH electrode, Mettler Toledo, Columbus, OH). Titration was stopped at about pH 9.0.

[5] = prior studies [34, 35, 45]; cited from earlier work

Q: Which results are given for “I: KHHHKHHHKHHHHKHHHKKKK-NH2 / II: KHHHKHHHKHHHHKHHHK / III: KHHHKHHHKHHHHKHHHK / IV: KHHHKHHHKHHHHKHHHK (amide I:19-IV:C, I:20-III:C, I:21-II:C) [H3K(+H)4b]”?
A: luciferase expression, fold greater than with H3K4b ([1]; 4:1 ratio (HK:mRNA; wt:wt)): 10 fold; effectiveness as carrier of mRNA (in words) ([1]; luciferase mRNA, HK polyplex): markedly better as a carrier of mRNA; RLU/μg-Protein (luciferase activity) ([1]; ratio mRNA:polymer 1:4 (wt:wt)): 1532.9 ± 122.9 RLU/μg-Protein; RLU/μg-Protein (luciferase activity) ([1]; ratio mRNA:polymer 1:8 (wt:wt)): 1656.3 ± 202.5 RLU/μg-Protein; RLU/μg-Protein (luciferase activity) ([1]; ratio mRNA:polymer 1:12 (wt:wt)): 1033.4 ± 197^ RLU/μg-Protein; mRNA transfection compared with DOTAP liposomes (in words) [2]: significantly better carriers of mRNA than the DOTAP liposomes; retardation of mRNA at low ratios compared with H3K4b (in words) [3]: markedly less retarded; buffering profile / buffering capacity (in words) [4]: minimal differences in their buffering profile; carrier of siRNA (in words) [5]: effective carriers of siRNA
